Values of other authors as cited in patent US20050169988A1, “High molecular weight, lipophilic, orally ingestible bioactive agents in formulations having improved bioavailability” (Shaklee Corporation, priority 2001, published 2005).

- Solubility in water: practically insoluble in water
Compound: COC1=C(OC)C(=O)C(C/C=C(\C)CC/C=C(\C)CC/C=C(\C)CC/C=C(\C)CC/C=C(\C)CC/C=C(\C)CC/C=C(\C)CC/C=C(\C)CC/C=C(\C)CCC=C(C)C)=C(C)C1=O [CoQ10, 2,3-dimethoxy-5-methyl-6-decaprenyl-1,4-benzoquinone]
